Experimental data: patent US8791132B2, “Compounds and methods for treatment of hypertension” (Medivation Technologies, Inc., priority 2011, dated 2014)

Tests used:
[1] = molecular target: T1, human recombinant adrenergic α2A receptor (Homo sapiens, UniProt P08913); assay: Radioligand binding, adrenergic α2A ([3H]MK-912); conditions: [3H]MK-912, repeat datapoints each shown; for Percentage inhibition of ligand binding, Adrenergic α2A (0.1 μM): compound at 0.1 μM; for inhibition at 0.1 µM: read-out: Percentage inhibition of ligand binding, Adrenergic α2A (0.1 μM), compound at 0.1 μM
T1 construct: expressed in transfected cells; host or cells: insect Sf9 cells
T1 sequence (P08913 1-465): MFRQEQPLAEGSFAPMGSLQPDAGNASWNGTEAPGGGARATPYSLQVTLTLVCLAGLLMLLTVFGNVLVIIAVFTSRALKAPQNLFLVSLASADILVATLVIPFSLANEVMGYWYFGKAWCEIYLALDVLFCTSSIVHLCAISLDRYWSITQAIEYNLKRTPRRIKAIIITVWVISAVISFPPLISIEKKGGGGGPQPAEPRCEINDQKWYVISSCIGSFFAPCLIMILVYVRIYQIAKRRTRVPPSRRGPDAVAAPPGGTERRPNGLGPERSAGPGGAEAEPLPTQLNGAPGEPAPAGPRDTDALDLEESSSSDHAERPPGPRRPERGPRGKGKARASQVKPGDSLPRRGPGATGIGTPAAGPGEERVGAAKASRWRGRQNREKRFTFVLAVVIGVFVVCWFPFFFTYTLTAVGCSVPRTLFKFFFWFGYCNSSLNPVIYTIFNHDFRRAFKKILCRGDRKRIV
In short: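 Sf9-expressed receptor was incubated with compound for 60 min at 25 °C in modified Tris-HCl buffer, pH 7.4. Nonspecific binding was taken as that remaining with 10 μM WB-4101.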

[2] = molecular target: T2, rat adrenergic α1B receptor (Rattus norvegicus, UniProt P15823); assay: Radioligand binding, adrenergic α1B ([3H]Prazosin); conditions: [3H]Prazosin, repeat datapoints each shown; for Percentage inhibition of ligand binding, Adrenergic α1B (0.1 μM): compound at 0.1 μM; for inhibition at 0.1 µM: read-out: Percentage inhibition of ligand binding, Adrenergic α1B (0.1 μM), compound at 0.1 μM
T2 construct: rat adrenergic α1B receptor obtained from Wistar Rat liver; from tissue; host or cells: Wistar rat liver
T2 sequence (P15823 1-515): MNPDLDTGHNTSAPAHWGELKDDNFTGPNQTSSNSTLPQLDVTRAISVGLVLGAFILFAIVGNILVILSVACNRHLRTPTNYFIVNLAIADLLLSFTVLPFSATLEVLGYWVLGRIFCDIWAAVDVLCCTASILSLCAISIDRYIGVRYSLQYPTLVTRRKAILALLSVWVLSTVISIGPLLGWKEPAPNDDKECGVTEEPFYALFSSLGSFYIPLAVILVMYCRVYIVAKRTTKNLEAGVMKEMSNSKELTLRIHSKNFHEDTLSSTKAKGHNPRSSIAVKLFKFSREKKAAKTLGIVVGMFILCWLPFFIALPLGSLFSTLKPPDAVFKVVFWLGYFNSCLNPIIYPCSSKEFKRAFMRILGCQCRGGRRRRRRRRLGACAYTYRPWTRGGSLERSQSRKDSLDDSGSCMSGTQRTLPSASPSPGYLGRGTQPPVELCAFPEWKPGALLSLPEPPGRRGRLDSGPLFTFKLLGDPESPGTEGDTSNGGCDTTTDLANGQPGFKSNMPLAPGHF
In short: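 Incubation ran 60 min at 25 °C in Tris-HCl buffer (50 mM, pH 7.4, 0.5 mM EDTA) with Wistar rat liver α1B receptor. 10 μM phentolamine set non-specific binding.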

[3] = molecular target: T3, human recombinant adrenergic α2B receptor (Homo sapiens, UniProt P18089); assay: Radioligand binding, adrenergic α2B ([3H]Rauwolscine); conditions: for Percentage inhibition of ligand binding, Adrenergic α2B (0.03 μM): compound at 0.03 μM; for Ki: read-out: Ki α2B; for inhibition at 0.03 µM: read-out: Percentage inhibition of ligand binding, Adrenergic α2B (0.03 μM), compound at 0.03 μM
T3 construct: expressed in transfected cells; host or cells: CHO-K1
T3 sequence (P18089 1-450): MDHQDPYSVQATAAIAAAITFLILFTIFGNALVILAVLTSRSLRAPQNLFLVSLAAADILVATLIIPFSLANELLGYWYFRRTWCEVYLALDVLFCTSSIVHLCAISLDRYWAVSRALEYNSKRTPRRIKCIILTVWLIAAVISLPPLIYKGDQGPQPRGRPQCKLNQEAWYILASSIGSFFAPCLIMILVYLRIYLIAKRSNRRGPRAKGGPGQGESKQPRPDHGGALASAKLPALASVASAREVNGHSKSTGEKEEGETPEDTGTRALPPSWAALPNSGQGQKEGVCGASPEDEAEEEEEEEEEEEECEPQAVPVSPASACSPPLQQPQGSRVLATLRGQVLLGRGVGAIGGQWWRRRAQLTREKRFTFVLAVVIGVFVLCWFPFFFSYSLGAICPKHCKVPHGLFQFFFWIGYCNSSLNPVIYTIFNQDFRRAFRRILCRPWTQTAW
In short: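 Assay used CHO-K1-expressed human α2B receptor in Tris-HCl pH 7.4 buffer with MgCl2, EDTA and BSA; 60 min incubation at 25 °C.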

[4] = [3H]Rauwolscine, repeat datapoints each shown

Structure (SMILES)	Percentage inhibition of ligand binding, Adrenergic α2A (0.1 μM) [1] [%]	Percentage inhibition of ligand binding, Adrenergic α1B (0.1 μM) [2] [%]	Percentage inhibition of ligand binding, Adrenergic α2B (0.03 μM) [3, 4] [%]	inhibition at 0.1 µM [1] [%]	inhibition at 0.1 µM [2] [%]	Ki [3] [nM]	inhibition at 0.03 µM [3, 4] [%]	inhibition at 0.03 µM ([2]; read-out: Percentage inhibition of ligand binding, Adrenergic α1B (0.03 μM), compound at 0.03 μM) [%]	inhibition at 0.1 µM ([3]; read-out: Percentage inhibition of ligand binding, Adrenergic α2B (0.1 μM), compound at 0.1 μM, [3H]Rauwolscine, repeat datapoints each shown) [%]
Cc1ccc2c(c1)c1c(n2CC(OC(=O)N(C)C)c2ccncc2)CCN(C)C1 (single isomer, unassigned) [141a, N,N-dimethyl-carbamic acid 2-(2,8-dimethyl-1,2,3,4-tetrahydro-pyrido[4,3-b]indol-5-yl)-1-pyridin-4-yl-ethyl ester]	−5	25	70						
Cc1ccc2c(c1)c1c(n2CC(OC(=O)N(C)C)c2ccncc2)CCN(C)C1 (single isomer, unassigned) [141b, N,N-dimethyl-carbamic acid 2-(2,8-dimethyl-1,2,3,4-tetrahydro-pyrido[4,3-b]indol-5-yl)-1-pyridin-4-yl-ethyl ester]			86	19	28	3.44	79		
CN1CCc2c(c3cc(Cl)ccc3n2CC(C)(O)c2ccc(C(F)(F)F)nc2)C1 (single isomer, unassigned) [143b]	0	17	49						
Cc1ccc2c(c1)c1c(n2CC(C)(OC(=O)C(C)C)c2cccnc2)CCN(C)C1 (single isomer, unassigned) [146a]	−1	41	37						
Cc1ccc2c(c1)c1c(n2CC(C)(OC(=O)C(C)C)c2cccnc2)CCN(C)C1 (single isomer, unassigned) [146b]	21	11	63						
Cc1ccc2c(c1)c1c(n2CC(OC(=O)c2ccncc2)c2ccncc2)CCN(C)C1 (single isomer, unassigned) [147a, isonicotinic acid 2-(2,8-dimethyl-1,2,3,4-tetrahydro-pyrido[4,3-b]indol-5-yl)-1-pyridin-4-yl-ethylester]	3	33	72						
Cc1ccc2c(c1)c1c(n2CC(OC(=O)c2ccncc2)c2ccncc2)CCN(C)C1 (single isomer, unassigned) [147b, isonicotinic acid 2-(2,8-dimethyl-1,2,3,4-tetrahydro-pyrido[4,3-b]indol-5-yl)-1-pyridin-4-yl-ethylester]	36	82	93						
Cc1cnc2c(c1)c1c(n2CC(C)(O)c2ccc(C)nc2)CCN2CCCC12 (single isomer, unassigned) [148a]	−5	23	52						
Cc1cnc2c(c1)c1c(n2CC(C)(O)c2ccc(C)nc2)CCN2CCCC12 (single isomer, unassigned) [148b]		74		37	71	0.43	105	35	106
Cc1cnc2c(c1)c1c(n2CC(C)(O)c2ccc(C)nc2)CCN2CCCC12 (single isomer, unassigned) [148c]	−1	6	16						
Cc1ccc2c(c1)c1c(n2CC(C)(N)c2cccnc2)CCN(C)C1 (single isomer, unassigned) [149a, 1-(2,8-dimethyl-3,4-dihydro-1H-pyrido[4,3-b]indol-5(2H)-yl)-2-(pyridin-3-yl)propan-2-amine]	−4				12		16		
